Measurements published in patent US6455540B1, “Methods of use of quinolone compounds against anaerobic pathogenic bacteria” (priority 1999, dated 2002).
≈ marks a conversion by molar mass, not a printed value.

Tests used:
Assay in all cases: Agar dilution MIC
[1] = test system: Actinomyces israelii; assay type: cell-based; settings: 6 isolates
[2] = test system: Clostridium ramosum; assay type: cell-based; settings: 10 isolates
[3] = test system: Bacteroides ureolyticus; assay type: cell-based; settings: Campylobacter ureolyticus, 17 isolates
[4] = test system: Fusobacterium varium; assay type: cell-based; settings: Fusobacterium varium, 17 isolates
[5] = test system: Porphyromonas gingivalis; assay type: cell-based; settings: 13 isolates
[6] = test system: Clostridium inocuum; assay type: cell-based, Clostridium innocuum; settings: Clostridium, 11 isolates
[7] = test system: Prevotella heparinolytica; assay type: cell-based; settings: 16 isolates
[8] = test system: Bilophila wadsworthia; assay type: cell-based; settings: Bilophila wadsworthia, 16 isolates, agar supplemented with pyruvate
[9] = test system: Anaerobiospirillum thomasii; assay type: cell-based; settings: 13 isolates
[10] = test system: Prevotella intermedia; assay type: cell-based; settings: 11 isolates
[11] = test system: Fusobacterium spp group 1; assay type: cell-based; settings: 19 isolates
[12] = test system: Prevotella buccae-oris group; assay type: cell-based; settings: 22 isolates
[13] = test system: Porphyromonas spp.; assay type: cell-based, Porphyromonas cangingivalis, cansulci, circumdentaria, levii; settings: 11 isolates
[14] = test system: Veillonella spp.; assay type: cell-based; settings: Veillonella, 24 isolates
[15] = test system: Prevotella bivia; assay type: cell-based; settings: 21 isolates
[16] = test system: Anaerobiospirillum succiniciproducens; assay type: cell-based; settings: 3 isolates
[17] = test system: Porphyromonas asaccharolyticus; assay type: cell-based, Porphyromonas asaccharolytica; settings: 11 isolates
[18] = test system: Porphyromonas canoris; assay type: cell-based; settings: 10 isolates
[19] = test system: Prevotella melaninogenica; assay type: cell-based; settings: 12 isolates
[20] = test system: Porphyromonas macaccae; assay type: cell-based; settings: 13 isolates
[21] = test system: Prevotella denticola/loeschii group; assay type: cell-based; settings: 6 isolates
[22] = test system: Peptostreptococcus asaccharolyticus; assay type: cell-based; settings: 11 isolates
[23] = test system: Actinomyces odontolyticus; assay type: cell-based; settings: 10 isolates
[24] = test system: Bacteroides gracilis; assay type: cell-based, Bacteroides gracilis (Campylobacter gracilis); settings: Campylobacter gracilis, 11 isolates
[25] = test system: Peptostreptococcus prevotii; assay type: cell-based; settings: 9 isolates
[26] = test system: Fusobacterium spp. group 2; assay type: cell-based, Fusobacterium mortiferum, necrogenes, ulcerans; settings: Fusobacterium, 12 isolates
[27] = test system: Fusobacterium russii; assay type: cell-based
[28] = test system: Clostridium clostridioforme; assay type: cell-based; settings: 11 isolates
[29] = test system: Peptostreptococcus magnus; assay type: cell-based; settings: 13 isolates
[30] = test system: Bacteroides tectum; assay type: cell-based; settings: 22 isolates
[31] = test system: Peptostreptococcus micros; assay type: cell-based; settings: 12 isolates
[32] = read-out: Minimal Inhibitory Concentration 90% (MIC90)
[33] = read-out: Minimal Inhibitory Concentration 50% (MIC50)
[34] = Porphyromonas, read-out: Minimal Inhibitory Concentration 50% (MIC50)
[35] = Porphyromonas, read-out: Minimal Inhibitory Concentration 90% (MIC90)

For `N[C@@H]1[C@H]2CN(c3nc4c(cc3F)c(=O)c(C(=O)O)cn4-c3ccc(F)cc3F)C[C@@H]12` [Trovafloxacin], the “Minimal Inhibitory Concentration Range” value [1] was 0.5 to 2 µg/mL, the MIC50 ([1]; Actinomyces israelii, read-out: Minimal Inhibitory Concentration 50% (MIC50)) was 1 µg/mL (≈ 2.4 µM) and the “Minimal Inhibitory Concentration Range” value [2] was 0.25 to 8 µg/mL. For the same compound, the MIC50 ([2]; Thomasclavelia ramosa, read-out: Minimal Inhibitory Concentration 50% (MIC50)) was 0.5 µg/mL (≈ 1.2 µM), the MIC90 ([2]; Thomasclavelia ramosa, read-out: Minimal Inhibitory Concentration 90% (MIC90)) was 2 µg/mL (≈ 4.8 µM) and the MIC90 [3, 32] was 4 µg/mL (≈ 9.61 µM). For the same compound, the MIC50 [3, 33] was 0.06 µg/mL (≈ 0.144 µM), the MIC50 [4, 33] was 4 µg/mL (≈ 9.61 µM) and the MIC90 [4, 32] was > 8 µg/mL. For the same compound, the “Minimal Inhibitory Concentration Range” value [5] was 0.03 to 0.06 µg/mL, the MIC50 ([5]; Porphyromonas gingivalis, read-out: Minimal Inhibitory Concentration 50% (MIC50)) was 0.06 µg/mL (≈ 0.144 µM) and the MIC90 ([5]; Porphyromonas gingivalis, read-out: Minimal Inhibitory Concentration 90% (MIC90)) was 0.06 µg/mL (≈ 0.144 µM). The MIC90 [6, 32] was 8 µg/mL (≈ 19.2 µM), the MIC50 [6, 33] was 0.5 µg/mL (≈ 1.2 µM) and the “Minimal Inhibitory Concentration Range” value [7] was 0.125 to 0.25 µg/mL. For the same compound, the MIC90 ([7]; Prevotella heparinolytica, read-out: Minimal Inhibitory Concentration 90% (MIC90)) was 0.25 µg/mL (≈ 0.6 µM), the MIC50 ([7]; Prevotella heparinolytica, read-out: Minimal Inhibitory Concentration 50% (MIC50)) was 0.125 µg/mL (≈ 0.3 µM) and the MIC90 [8, 32] was > 8 µg/mL. For the same compound, the MIC50 [8, 33] was 0.5 µg/mL (≈ 1.2 µM), the “Minimal Inhibitory Concentration Range” value [9] was 0.06 to 0.5 µg/mL and the MIC50 ([9]; Anaerobiospirillum thomasii, read-out: Minimal Inhibitory Concentration 50% (MIC50)) was 0.125 µg/mL (≈ 0.3 µM). For the same compound, the MIC90 ([9]; Anaerobiospirillum thomasii, read-out: Minimal Inhibitory Concentration 90% (MIC90)) was 0.25 µg/mL (≈ 0.6 µM), the “Minimal Inhibitory Concentration Range” value [10] was 0.06 to 1 µg/mL and the MIC90 ([10]; Prevotella intermedia, read-out: Minimal Inhibitory Concentration 90% (MIC90)) was 1 µg/mL (≈ 2.4 µM). The MIC50 ([10]; Prevotella intermedia, read-out: Minimal Inhibitory Concentration 50% (MIC50)) was 0.5 µg/mL (≈ 1.2 µM), the “Minimal Inhibitory Concentration Range” value [11] was 0.25 to 4 µg/mL and the MIC50 ([11]; Fusobacterium, GROUP1, read-out: Minimal Inhibitory Concentration 50% (MIC50)) was 0.5 µg/mL (≈ 1.2 µM). The MIC90 ([11]; Fusobacterium, GROUP1, read-out: Minimal Inhibitory Concentration 90% (MIC90)) was 4 µg/mL (≈ 9.61 µM), the “Minimal Inhibitory Concentration Range” value [12] was 0.25 to 4 µg/mL and the MIC90 ([12]; Prevotella, read-out: Minimal Inhibitory Concentration 90% (MIC90)) was 2 µg/mL (≈ 4.8 µM). The MIC50 ([12]; Prevotella, read-out: Minimal Inhibitory Concentration 50% (MIC50)) was 1 µg/mL (≈ 2.4 µM), the “Minimal Inhibitory Concentration Range” value [13] was 0.06 to 1 µg/mL and the MIC50 [13, 34] was 0.25 µg/mL (≈ 0.6 µM). The MIC90 [13, 35] was 1 µg/mL (≈ 2.4 µM), the MIC90 [14, 32] was > 8 µg/mL and the MIC50 [14, 33] was 0.25 µg/mL (≈ 0.6 µM). The “Minimal Inhibitory Concentration Range” value [15] was 1 to 4 µg/mL, the MIC90 ([15]; Prevotella bivia, read-out: Minimal Inhibitory Concentration 90% (MIC90)) was 2 µg/mL (≈ 4.8 µM) and the MIC50 ([15]; Prevotella bivia, read-out: Minimal Inhibitory Concentration 50% (MIC50)) was 2 µg/mL (≈ 4.8 µM). The “Minimal Inhibitory Concentration Range” value [16] was 0.5 to 2 µg/mL, the MIC50 ([16]; Anaerobiospirillum succiniciproducens, read-out: Minimal Inhibitory Concentration 50% (MIC50)) was 1 µg/mL (≈ 2.4 µM) and the “Minimal Inhibitory Concentration Range” value [17] was 0.03 to 0.25 µg/mL. The MIC50 [17, 34] was 0.25 µg/mL (≈ 0.6 µM), the MIC90 [17, 35] was 0.25 µg/mL (≈ 0.6 µM) and the “Minimal Inhibitory Concentration Range” value [18] was 0.06 to 0.5 µg/mL. For the same compound, the MIC50 ([18]; Porphyromonas canoris, read-out: Minimal Inhibitory Concentration 50% (MIC50)) was 0.25 µg/mL (≈ 0.6 µM), the MIC90 ([18]; Porphyromonas canoris, read-out: Minimal Inhibitory Concentration 90% (MIC90)) was 0.5 µg/mL (≈ 1.2 µM) and the “Minimal Inhibitory Concentration Range” value [19] was 0.06 to 8 µg/mL. The MIC90 ([19]; Prevotella melaninogenica, read-out: Minimal Inhibitory Concentration 90% (MIC90)) was 4 µg/mL (≈ 9.61 µM), the MIC50 ([19]; Prevotella melaninogenica, read-out: Minimal Inhibitory Concentration 50% (MIC50)) was 1 µg/mL (≈ 2.4 µM) and the “Minimal Inhibitory Concentration Range” value [20] was 0.03 to 0.125 µg/mL. For the same compound, the MIC50 [20, 34] was 0.06 µg/mL (≈ 0.144 µM), the MIC90 [20, 35] was 0.125 µg/mL (≈ 0.3 µM) and the “Minimal Inhibitory Concentration Range” value [21] was 0.06 to 4 µg/mL. For the same compound, the MIC50 ([21]; Prevotella denticola, read-out: Minimal Inhibitory Concentration 50% (MIC50)) was 1 µg/mL (≈ 2.4 µM), the “Minimal Inhibitory Concentration Range” value [22] was 0.5 to 2 µg/mL and the MIC50 ([22]; Peptoniphilus asaccharolyticus, read-out: Minimal Inhibitory Concentration 50% (MIC50)) was 1 µg/mL (≈ 2.4 µM). The MIC90 ([22]; Peptoniphilus asaccharolyticus, read-out: Minimal Inhibitory Concentration 90% (MIC90)) was 1 µg/mL (≈ 2.4 µM), the “Minimal Inhibitory Concentration Range” value [23] was 2 to 4 µg/mL and the MIC90 ([23]; Schaalia odontolytica, read-out: Minimal Inhibitory Concentration 90% (MIC90)) was 4 µg/mL (≈ 9.61 µM). It also gave an MIC50 ([23]; Schaalia odontolytica, read-out: Minimal Inhibitory Concentration 50% (MIC50)) of 4 µg/mL (≈ 9.61 µM), an MIC90 [24, 32] of 0.5 µg/mL (≈ 1.2 µM) and an MIC50 [24, 33] of 0.03 µg/mL (≈ 0.0721 µM). The “Minimal Inhibitory Concentration Range” value [25] was 0.25 to 1 µg/mL, the MIC50 ([25]; Anaerococcus prevotii, read-out: Minimal Inhibitory Concentration 50% (MIC50)) was 0.25 µg/mL (≈ 0.6 µM) and the MIC50 [26, 33] was 4 µg/mL (≈ 9.61 µM). The MIC90 [26, 32] was 4 µg/mL (≈ 9.61 µM), the “Minimal Inhibitory Concentration Range” value [27] was 0.5 to 4 µg/mL and the MIC50 ([27]; Fusobacterium russii, read-out: Minimal Inhibitory Concentration 50% (MIC50)) was 4 µg/mL (≈ 9.61 µM). For the same compound, the MIC90 ([27]; Fusobacterium russii, read-out: Minimal Inhibitory Concentration 90% (MIC90)) was 4 µg/mL (≈ 9.61 µM), the “Minimal Inhibitory Concentration Range” value [28] was 1 to 8 µg/mL and the MIC90 ([28]; Clostridium, read-out: Minimal Inhibitory Concentration 90% (MIC90)) was 4 µg/mL (≈ 9.61 µM). For the same compound, the MIC50 ([28]; Clostridium, read-out: Minimal Inhibitory Concentration 50% (MIC50)) was 4 µg/mL (≈ 9.61 µM), the “Minimal Inhibitory Concentration Range” value [29] was 0.06 to 0.25 µg/mL and the MIC50 ([29]; Finegoldia magna, read-out: Minimal Inhibitory Concentration 50% (MIC50)) was 0.125 µg/mL (≈ 0.3 µM). For the same compound, the MIC90 ([29]; Finegoldia magna, read-out: Minimal Inhibitory Concentration 90% (MIC90)) was 0.25 µg/mL (≈ 0.6 µM), the “Minimal Inhibitory Concentration Range” value [30] was 0.03 to 0.125 µg/mL and the MIC90 ([30]; Bacteroides pyogenes, read-out: Minimal Inhibitory Concentration 90% (MIC90)) was 0.125 µg/mL (≈ 0.3 µM). The MIC50 ([30]; Bacteroides pyogenes, read-out: Minimal Inhibitory Concentration 50% (MIC50)) was 0.06 µg/mL (≈ 0.144 µM), the “Minimal Inhibitory Concentration Range” value [31] was 0.03 to 0.125 µg/mL and the MIC50 ([31]; Parvimonas micra, read-out: Minimal Inhibitory Concentration 50% (MIC50)) was 0.06 µg/mL (≈ 0.144 µM). For the same compound, the MIC90 ([31]; Parvimonas micra, read-out: Minimal Inhibitory Concentration 90% (MIC90)) was 0.06 µg/mL (≈ 0.144 µM).
